Experiment [1] has as its system vasopressin-induced hypertension. Description: Reversal of vasopressin-induced hypertension in rats, intraduodenal single dose. The class given is in vivo, Male Long Evans rats. The note with it: ID dose 10 mg/kg, anesthetized rats, maximum percent reversal within 60 min. The procedure:
Reversal of Vasopressin-Induced Hypertension in Rats
The anti-hypertensive activity of compounds was screened in an anesthetized model of vasopressin-induced hypertension. Male Long Evans, normotensive rats of between 350 and 450 g in body weight were anesthetized with pentobarbital (35 mg/kg, ip) and maintained throughout the procedure with an ip infusion of 10 mg/kg/hr. Arginine vasopressin was infused at 30 ng/kg/min, iv, to induce a stable hypertensive state (ca. 50 mmHg increase in mean arterial blood pressure). Compounds of interest were administered in an ascending dose fashion and the maximum decrease in mean arterial blood pressure was recorded. An ED50 was determined from the linear portion of the dose-response relationship for each animal.
This model was modified slightly to assess the bioavailability of compounds of interest. Rather than dosing the animals iv in an ascending dose fashion, a single dose per animal was administered directly into the duodenum. The anti-hypertensive effects were then monitored for 60 min and the maximum percent reversal was calculated.

The target of experiment [2] is T1, human V-2 receptor (Homo sapiens, UniProt P30518).
T1 construct: expressed in transfected cells; host or cells: HEK-293
Description: In vitro recombinant vasopressin receptor binding assay (V-2), displacement of 3H-arginine vasopressin. The arrangement: dose or concentration left out as unconfirmed. To be noted: cloned human V-2 receptor membranes, HEK-293. On the procedure: (§1) In Vitro Recombinant Vasopressin Receptor Binding Assay
(§2) Compounds were assessed for their ability to displace ^3H-arginine vasopressin from the human V-1 or V-2 receptor in HEK-293 cells. […] Into wells of 96-well round bottom polypropylene plates were added buffer, test compound, membrane (containing cloned human V-1 or V-2 receptor), and ^3H-vasopressin. The reaction plates were allowed to sit at rt for 1 h. The samples were filtered through Unifilter GF/C plates presoaked in 0.3 polyethyleneimine). The plates were washed 5 times with cold physiological saline containing 0.05% Tween 20. After drying, the bottom of the filter plates were sealed and 0.025 ml of Microscint-20 was added to each filter. The top of the plate was sealed, and the plate was counted.
(In general: In a radioligand displacement assay an active substance lowers the binding of a labelled ligand.)

Experiment [3] concerns the target T2, human V-1 receptor (Homo sapiens, UniProt P37288).
T2 construct: expressed in transfected cells; host or cells: HEK-293
Briefly: In vitro recombinant vasopressin receptor binding assay (V-1), displacement of 3H-arginine vasopressin. To be noted: at 0.1 (unit uncertain) as printed in cell; cloned human V-1 receptor membranes, HEK-293. The arrangement: unit of the concentration uncertain. The procedure:
as §1, §2

Structures are written as SMILES.

T2 sequence (P37288 whole entry): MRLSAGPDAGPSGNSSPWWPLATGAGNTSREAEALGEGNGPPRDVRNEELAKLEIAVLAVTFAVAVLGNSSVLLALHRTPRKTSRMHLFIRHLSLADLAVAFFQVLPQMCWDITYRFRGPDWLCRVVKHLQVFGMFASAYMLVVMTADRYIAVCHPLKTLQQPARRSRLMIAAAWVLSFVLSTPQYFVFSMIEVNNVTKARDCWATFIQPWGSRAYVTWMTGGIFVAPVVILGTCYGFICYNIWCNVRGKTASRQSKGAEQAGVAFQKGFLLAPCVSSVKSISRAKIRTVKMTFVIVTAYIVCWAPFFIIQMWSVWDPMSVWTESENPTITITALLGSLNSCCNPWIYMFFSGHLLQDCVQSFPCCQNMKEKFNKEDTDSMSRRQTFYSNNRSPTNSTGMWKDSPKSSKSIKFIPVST
T1 sequence (P30518 whole entry): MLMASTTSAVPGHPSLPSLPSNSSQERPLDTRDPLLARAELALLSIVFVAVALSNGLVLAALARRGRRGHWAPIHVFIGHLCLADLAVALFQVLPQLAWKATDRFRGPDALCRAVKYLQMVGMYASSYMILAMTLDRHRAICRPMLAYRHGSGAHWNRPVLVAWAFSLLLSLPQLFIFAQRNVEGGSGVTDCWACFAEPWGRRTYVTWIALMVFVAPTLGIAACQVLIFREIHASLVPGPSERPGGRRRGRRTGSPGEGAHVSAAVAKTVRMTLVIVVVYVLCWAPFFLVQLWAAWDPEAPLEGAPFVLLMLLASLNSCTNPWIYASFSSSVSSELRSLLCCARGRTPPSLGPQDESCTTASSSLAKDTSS

In the case of `O=C(Nc1ccc(C(=O)N2CCCc3c[nH]c4cccc2c34)cc1)c1ccccc1-c1ccccc1` [Compound 10, 6-[4-[[(2-Biphenyl-)carbonyl]amino]benzoyl]-3,4,5,6-tetrahydro-1H-azepino[4,3,2-cd]indole], in experiment [1], the “BP Reduction (%)” value worked out at 17%.

In the case of `Cc1occc1C(=O)Nc1ccc(C(=O)N2CCCc3c[nH]c4cccc2c34)cc1` [Compound 12, 6-[4-[[(2-Methyl-3-furanyl)carbonyl]amino]benzoyl]-3,4,5,6-tetrahydro-1H-azepino[4,3,2-cd]indole], in experiment [2], the “V2 Bdg (%)” value is given as 24% (1.0 M).

As to `O=C(Nc1ccc(C(=O)N2CCCC3C(=O)Nc4cccc2c43)cc1)c1ccccc1-c1ccccc1` (centres unmarked) [Compound 15, 6-[4-[[(2-Biphenyl-)carbonyl]amino]benzoyl]-3,4,5,6-tetrahydro-1H-azepino[4,3,2-cd]-2-indolone], the “BP Reduction (%)” value in experiment [1] is given as 23%.

Regarding `CN(C)Cc1[nH]c2cccc3c2c1CCCN3C(=O)c1ccc(NC(=O)c2ccccc2-c2ccccc2)cc1` [Compound 17, 6-[4-[[(2-Biphenyl-)carbonyl]amino]benzoyl]-2-(N, N-dimethylaminomethyl)-3,4,5,6-tetrahydro-1 H-azepino[4,3,2-cd]indole], the “V1 Bdg (%)” value in experiment [3] is 6% (0.1 M).

With `O=C(Nc1ccc(C(=O)N2CCCc3c(S(=O)(=O)O)[nH]c4cccc2c34)cc1)c1ccccc1-c1ccccc1` [Compound 18, 6-[4-[[(2-Biphenyl-)carbonyl]amino]benzoyl]-3,4,5,6-tetrahydro-1H-azepino[4,3,2-cd]indole-2-sulfonic acid], in experiment [1], the “BP Reduction (%)” value came to 13%. Moreover, the “V1 Bdg (%)” value in experiment [3] is 0% (0.1 M).

For `O=C(Nc1ccc(C(=O)N2CCCc3c(S(=O)(=O)O)[nH]c4cccc2c34)c(Cl)c1)c1ccccc1-c1ccccc1` [Compound 19, 6-[4-[[(2-Biphenyl-)carbonyl]amino]2-chlorobenzoyl]-3,4,5,6-tetrahydro-1 H-azepino (4,3,2-cd]indole-2-sulfonic acid], in experiment [1], the “BP Reduction (%)” value worked out at 23%. Further, the “V1 Bdg (%)” value in experiment [3] is 4% (0.1 M).

(Values after US6765004B1, “Indoloazepines as vasopressin receptor antagonists” (priority 1999, dated 2004).)
